Results on 6 molecules are retold here after ChEMBL document CHEMBL5291721, “A preclinical secondary pharmacology resource illuminates target-adverse drug reaction associations of marketed drugs” (Nat Commun, 2023).

In one assay the target is Acetylcholinesterase (Homo sapiens, UniProt P22303). In kind it is functional.
For assay [1], the target named is cGMP-inhibited 3',5'-cyclic phosphodiesterase 3A (Homo sapiens, UniProt Q14432). It counts as functional.
A further assay concerns the target Histamine H3 receptor (Homo sapiens, UniProt Q9Y5N1).
Assay [2] has as its target T1, Alpha-2A adrenergic receptor (Homo sapiens, UniProt P08913).
T1 sequence (P08913 whole entry): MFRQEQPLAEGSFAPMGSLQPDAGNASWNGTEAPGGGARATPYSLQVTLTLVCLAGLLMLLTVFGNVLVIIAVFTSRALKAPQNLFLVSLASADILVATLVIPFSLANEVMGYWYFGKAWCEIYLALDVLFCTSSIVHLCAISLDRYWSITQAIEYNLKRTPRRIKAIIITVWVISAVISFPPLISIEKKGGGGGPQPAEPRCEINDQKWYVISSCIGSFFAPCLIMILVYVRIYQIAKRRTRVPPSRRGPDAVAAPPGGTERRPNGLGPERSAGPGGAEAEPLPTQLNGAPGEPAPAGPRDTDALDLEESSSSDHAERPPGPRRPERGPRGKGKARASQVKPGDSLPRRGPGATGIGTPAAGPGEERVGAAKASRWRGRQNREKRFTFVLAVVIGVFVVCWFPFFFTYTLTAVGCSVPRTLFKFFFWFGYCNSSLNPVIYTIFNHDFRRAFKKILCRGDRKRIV

The target of assay [3] is T2, Amine oxidase [flavin-containing] A (Homo sapiens, UniProt P21397).
T2 sequence (P21397 whole entry): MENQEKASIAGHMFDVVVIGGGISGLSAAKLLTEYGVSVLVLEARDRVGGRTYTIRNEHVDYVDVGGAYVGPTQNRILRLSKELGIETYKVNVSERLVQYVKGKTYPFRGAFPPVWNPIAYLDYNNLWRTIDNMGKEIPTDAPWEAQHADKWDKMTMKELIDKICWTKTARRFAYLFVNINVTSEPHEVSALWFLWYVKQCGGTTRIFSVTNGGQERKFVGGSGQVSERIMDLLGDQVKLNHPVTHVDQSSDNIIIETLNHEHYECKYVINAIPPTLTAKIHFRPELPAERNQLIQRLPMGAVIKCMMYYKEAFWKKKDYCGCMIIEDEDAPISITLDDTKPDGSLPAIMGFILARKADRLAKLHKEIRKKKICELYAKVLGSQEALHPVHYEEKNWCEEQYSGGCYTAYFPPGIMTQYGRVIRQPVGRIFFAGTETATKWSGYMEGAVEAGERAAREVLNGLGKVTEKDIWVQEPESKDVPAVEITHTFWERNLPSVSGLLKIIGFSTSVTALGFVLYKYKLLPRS
It counts as functional.

Another assay addresses Prothrombin (Homo sapiens, UniProt P00734). In kind it is functional.
For assay [4], the target named is 5-hydroxytryptamine receptor 2B (Homo sapiens, UniProt P41595). In kind it is functional, cell-based.
The target in assay [5] is T3, 5-hydroxytryptamine receptor 1A (Homo sapiens, UniProt P08908).
T3 sequence (P08908 whole entry): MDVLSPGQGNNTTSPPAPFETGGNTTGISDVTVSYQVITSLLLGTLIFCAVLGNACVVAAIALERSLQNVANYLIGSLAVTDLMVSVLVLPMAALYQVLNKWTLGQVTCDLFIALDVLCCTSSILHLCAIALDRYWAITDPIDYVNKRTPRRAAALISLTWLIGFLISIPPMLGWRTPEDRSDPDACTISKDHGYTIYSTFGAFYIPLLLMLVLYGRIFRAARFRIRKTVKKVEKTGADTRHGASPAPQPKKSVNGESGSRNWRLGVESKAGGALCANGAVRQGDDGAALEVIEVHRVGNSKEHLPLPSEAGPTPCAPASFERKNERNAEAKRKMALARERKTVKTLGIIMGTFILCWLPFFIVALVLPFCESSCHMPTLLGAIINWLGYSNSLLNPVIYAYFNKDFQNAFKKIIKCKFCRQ

In assay [6] the target is T4, Thromboxane A2 receptor (Homo sapiens, UniProt P21731).
T4 sequence (P21731 whole entry): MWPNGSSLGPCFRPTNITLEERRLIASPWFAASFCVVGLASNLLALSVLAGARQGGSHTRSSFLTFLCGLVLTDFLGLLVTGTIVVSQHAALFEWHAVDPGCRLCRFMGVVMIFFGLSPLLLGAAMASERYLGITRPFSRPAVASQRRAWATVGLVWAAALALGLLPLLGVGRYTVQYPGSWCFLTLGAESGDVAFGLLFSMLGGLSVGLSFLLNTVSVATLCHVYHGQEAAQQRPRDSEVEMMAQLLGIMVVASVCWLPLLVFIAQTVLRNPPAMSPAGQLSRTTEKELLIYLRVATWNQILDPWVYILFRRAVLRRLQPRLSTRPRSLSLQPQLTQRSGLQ
It counts as functional, cell-based.

Assay [7] has as its target Sodium-dependent dopamine transporter (Homo sapiens, UniProt Q01959).
Assay [8] addresses 3',5'-cyclic-AMP phosphodiesterase 4A (Homo sapiens, UniProt P27815). In kind it is functional.
Assay [9] addresses T4, Thromboxane A2 receptor. In kind it is functional, cell-based. This is another data set of the same source.
In assay [10] the target is T5, Muscarinic acetylcholine receptor M2 (Homo sapiens, UniProt P08172).
T5 sequence (P08172 whole entry): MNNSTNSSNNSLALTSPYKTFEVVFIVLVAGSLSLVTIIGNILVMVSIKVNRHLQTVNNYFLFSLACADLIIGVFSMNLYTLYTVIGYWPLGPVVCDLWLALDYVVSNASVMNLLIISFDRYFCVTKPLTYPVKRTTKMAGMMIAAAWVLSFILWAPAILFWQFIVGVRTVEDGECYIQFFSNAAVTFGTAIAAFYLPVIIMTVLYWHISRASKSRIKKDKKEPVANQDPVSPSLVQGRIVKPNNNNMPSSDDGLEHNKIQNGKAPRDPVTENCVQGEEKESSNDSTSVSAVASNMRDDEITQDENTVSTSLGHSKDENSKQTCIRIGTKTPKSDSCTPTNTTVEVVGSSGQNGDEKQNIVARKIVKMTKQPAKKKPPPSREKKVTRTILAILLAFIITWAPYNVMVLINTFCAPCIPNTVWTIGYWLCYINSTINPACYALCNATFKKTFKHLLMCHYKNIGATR

SMILES strings stand for the structures. Some results are limits rather than exact numbers.
Also: assay procedure not described here.

Sequence of Sodium-dependent dopamine transporter (Q01959 whole entry): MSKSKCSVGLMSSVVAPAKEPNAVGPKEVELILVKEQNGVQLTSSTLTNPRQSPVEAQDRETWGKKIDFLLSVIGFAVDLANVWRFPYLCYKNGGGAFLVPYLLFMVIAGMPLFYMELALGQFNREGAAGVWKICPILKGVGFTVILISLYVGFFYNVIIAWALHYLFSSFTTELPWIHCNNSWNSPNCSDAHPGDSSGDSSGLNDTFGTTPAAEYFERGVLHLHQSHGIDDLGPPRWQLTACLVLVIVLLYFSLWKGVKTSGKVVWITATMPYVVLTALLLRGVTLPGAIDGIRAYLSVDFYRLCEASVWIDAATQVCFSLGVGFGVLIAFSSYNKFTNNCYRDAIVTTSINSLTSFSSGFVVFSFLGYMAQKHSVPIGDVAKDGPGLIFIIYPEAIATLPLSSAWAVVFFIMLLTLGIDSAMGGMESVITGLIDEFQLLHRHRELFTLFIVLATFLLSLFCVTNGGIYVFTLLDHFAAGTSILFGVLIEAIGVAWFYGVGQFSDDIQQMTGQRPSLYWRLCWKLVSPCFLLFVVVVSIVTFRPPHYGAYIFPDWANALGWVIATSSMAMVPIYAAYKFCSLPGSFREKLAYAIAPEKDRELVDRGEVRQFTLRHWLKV
Sequence of cGMP-inhibited 3',5'-cyclic phosphodiesterase 3A (Q14432 whole entry): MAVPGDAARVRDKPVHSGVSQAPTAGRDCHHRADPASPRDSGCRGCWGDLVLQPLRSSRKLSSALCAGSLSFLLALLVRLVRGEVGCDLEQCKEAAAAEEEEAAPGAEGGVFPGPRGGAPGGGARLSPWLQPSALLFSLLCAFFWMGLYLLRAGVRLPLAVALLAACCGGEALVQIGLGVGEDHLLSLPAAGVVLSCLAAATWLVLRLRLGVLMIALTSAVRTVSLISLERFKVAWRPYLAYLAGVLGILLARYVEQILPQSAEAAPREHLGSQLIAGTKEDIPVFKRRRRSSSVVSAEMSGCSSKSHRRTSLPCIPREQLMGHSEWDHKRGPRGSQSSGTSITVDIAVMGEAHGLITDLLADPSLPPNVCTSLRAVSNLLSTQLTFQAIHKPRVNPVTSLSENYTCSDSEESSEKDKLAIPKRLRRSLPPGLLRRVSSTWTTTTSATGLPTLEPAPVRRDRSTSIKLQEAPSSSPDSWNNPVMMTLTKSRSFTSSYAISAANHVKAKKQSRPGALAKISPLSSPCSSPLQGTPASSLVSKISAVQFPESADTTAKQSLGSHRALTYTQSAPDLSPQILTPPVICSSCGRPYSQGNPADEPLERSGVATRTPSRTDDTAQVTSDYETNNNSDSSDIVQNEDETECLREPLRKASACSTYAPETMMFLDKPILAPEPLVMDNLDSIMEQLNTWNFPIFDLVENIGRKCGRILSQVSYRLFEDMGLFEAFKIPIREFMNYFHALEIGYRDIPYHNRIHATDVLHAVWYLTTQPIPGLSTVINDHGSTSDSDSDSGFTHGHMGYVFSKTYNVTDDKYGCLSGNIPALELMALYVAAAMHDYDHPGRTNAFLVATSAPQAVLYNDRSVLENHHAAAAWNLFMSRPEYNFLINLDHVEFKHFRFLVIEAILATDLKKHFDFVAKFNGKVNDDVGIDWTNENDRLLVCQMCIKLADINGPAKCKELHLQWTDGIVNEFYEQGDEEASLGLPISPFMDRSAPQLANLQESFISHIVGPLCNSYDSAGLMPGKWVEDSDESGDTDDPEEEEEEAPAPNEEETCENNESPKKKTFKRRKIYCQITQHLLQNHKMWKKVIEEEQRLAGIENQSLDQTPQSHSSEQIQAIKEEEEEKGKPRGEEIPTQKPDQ
Sequence of 3',5'-cyclic-AMP phosphodiesterase 4A (P27815 whole entry): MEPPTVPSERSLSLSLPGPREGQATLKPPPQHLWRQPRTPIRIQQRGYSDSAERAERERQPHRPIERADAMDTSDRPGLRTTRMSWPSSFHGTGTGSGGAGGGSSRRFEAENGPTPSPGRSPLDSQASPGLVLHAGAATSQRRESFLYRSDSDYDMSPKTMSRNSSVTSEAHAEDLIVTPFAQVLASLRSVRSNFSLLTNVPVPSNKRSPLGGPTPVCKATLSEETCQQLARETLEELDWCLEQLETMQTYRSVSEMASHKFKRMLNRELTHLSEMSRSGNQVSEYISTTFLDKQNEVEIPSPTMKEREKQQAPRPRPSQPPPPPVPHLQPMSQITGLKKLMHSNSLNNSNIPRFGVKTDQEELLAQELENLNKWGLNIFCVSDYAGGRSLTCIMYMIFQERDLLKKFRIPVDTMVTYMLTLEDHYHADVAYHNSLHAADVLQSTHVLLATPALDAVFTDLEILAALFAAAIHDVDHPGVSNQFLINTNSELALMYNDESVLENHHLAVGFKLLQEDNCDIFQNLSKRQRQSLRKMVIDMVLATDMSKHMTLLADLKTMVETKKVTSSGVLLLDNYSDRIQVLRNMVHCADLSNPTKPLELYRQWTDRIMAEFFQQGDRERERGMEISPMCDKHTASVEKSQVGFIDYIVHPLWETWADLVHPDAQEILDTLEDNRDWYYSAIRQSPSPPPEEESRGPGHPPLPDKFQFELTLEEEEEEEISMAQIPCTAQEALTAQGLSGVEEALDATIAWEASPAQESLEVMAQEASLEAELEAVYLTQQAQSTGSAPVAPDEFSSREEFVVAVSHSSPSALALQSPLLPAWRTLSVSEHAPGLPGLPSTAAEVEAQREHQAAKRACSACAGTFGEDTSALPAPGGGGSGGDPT
Sequence of 5-hydroxytryptamine receptor 2B (P41595 whole entry): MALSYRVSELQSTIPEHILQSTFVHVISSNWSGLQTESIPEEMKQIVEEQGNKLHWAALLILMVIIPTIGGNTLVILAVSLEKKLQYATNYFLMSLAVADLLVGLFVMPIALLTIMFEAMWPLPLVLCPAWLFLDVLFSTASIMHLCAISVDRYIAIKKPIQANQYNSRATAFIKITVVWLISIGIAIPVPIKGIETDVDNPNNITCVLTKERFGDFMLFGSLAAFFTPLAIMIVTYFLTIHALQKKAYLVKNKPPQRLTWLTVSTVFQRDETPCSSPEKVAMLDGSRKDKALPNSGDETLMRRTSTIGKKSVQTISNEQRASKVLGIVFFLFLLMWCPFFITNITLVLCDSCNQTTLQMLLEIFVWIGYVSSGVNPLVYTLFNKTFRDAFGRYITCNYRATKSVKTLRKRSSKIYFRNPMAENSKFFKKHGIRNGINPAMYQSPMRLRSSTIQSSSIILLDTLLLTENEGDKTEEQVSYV
Sequence of Acetylcholinesterase (P22303 whole entry): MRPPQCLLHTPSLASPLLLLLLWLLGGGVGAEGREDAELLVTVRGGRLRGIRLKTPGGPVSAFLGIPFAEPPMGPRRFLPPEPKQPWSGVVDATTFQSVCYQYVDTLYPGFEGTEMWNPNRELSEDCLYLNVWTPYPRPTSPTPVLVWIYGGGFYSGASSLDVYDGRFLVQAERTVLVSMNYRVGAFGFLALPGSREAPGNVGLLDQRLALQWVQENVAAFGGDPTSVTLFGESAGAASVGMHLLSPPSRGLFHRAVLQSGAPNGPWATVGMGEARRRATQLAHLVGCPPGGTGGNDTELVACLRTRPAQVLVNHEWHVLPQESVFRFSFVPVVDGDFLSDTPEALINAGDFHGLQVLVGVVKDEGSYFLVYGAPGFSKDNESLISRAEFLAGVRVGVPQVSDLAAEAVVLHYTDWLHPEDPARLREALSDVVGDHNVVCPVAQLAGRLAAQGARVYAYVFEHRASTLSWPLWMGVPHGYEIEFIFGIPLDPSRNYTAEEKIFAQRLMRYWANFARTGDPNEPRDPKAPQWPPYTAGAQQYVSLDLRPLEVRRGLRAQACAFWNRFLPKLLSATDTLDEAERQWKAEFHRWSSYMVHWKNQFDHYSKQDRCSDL
Sequence of Histamine H3 receptor (Q9Y5N1 whole entry): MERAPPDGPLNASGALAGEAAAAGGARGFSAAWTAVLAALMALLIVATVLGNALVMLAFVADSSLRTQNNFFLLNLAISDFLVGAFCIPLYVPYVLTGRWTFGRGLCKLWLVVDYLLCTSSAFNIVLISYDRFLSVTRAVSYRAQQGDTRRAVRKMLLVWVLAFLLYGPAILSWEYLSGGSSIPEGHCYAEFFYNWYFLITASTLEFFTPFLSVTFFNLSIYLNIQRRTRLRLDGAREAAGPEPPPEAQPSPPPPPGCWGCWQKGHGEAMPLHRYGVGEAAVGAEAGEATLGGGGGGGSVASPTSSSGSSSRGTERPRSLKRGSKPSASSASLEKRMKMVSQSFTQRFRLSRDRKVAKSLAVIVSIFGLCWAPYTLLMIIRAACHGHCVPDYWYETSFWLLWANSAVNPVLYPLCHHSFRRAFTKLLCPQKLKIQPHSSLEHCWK

In the case of `Cc1cn([C@H]2O[C@@H](CO)[C@H](O)[C@H]2F)c(=O)[nH]c1=O` [CLEVUDINE], the AC50 (at Acetylcholinesterase; in assay [1]; on Histamine H3 receptor; in [2]; in assay [3]; at Prothrombin) was greater than 30 µM throughout. The AC50 (in [4]; in [5]; on Thromboxane A2 receptor [6]; in [7]; in assay [8]; at Thromboxane A2 receptor [9]) was greater than 30 µM in each case. This molecule also came in with a concentration at half-maximal activity (AC50) in [10] greater than 30 µM.

As to `CC(=O)[C@H]1CC[C@H]2[C@@H]3C=CC4=CC(=O)CC[C@@]4(C)[C@@H]3CC[C@]12C` [DYDROGESTERONE], the AC50 (on Acetylcholinesterase; in [1]; on Histamine H3 receptor; in [2]; in assay [3]; on Prothrombin) was greater than 30 µM throughout. The concentration at half-maximal activity (AC50) is greater than 30 µM in assay [4]; greater than 30 µM in assay [5]; 25.1 µM at Thromboxane A2 receptor [6]; greater than 30 µM in [7]; greater than 30 µM in assay [8]; greater than 30 µM on Thromboxane A2 receptor [9]. For the same molecule, the half-maximal activity concentration (AC50) in assay [10] is greater than 30 µM.

Regarding `CC(O)(P(=O)(O)O)P(=O)(O)O` [ETIDRONIC ACID], the half-maximal activity concentration (AC50) (at Acetylcholinesterase; in assay [1]; at Histamine H3 receptor; in assay [2]; in assay [3]; on Prothrombin) was greater than 30 µM in each case. Also, the half-maximal activity concentration (AC50) (in assay [4]; in assay [5]; on Thromboxane A2 receptor [6]; in assay [7]; in [8]; on Thromboxane A2 receptor [9]) was greater than 30 µM throughout. This molecule displayed an AC50 in [10] greater than 30 µM.

As to `O=C(CCC/C=C\C[C@@H]1[C@@H](CC[C@@H](O)CCc2ccccc2)[C@H](O)C[C@@H]1O)OCCCCO[N+](=O)[O-]` [LATANOPROSTENE BUNOD], the AC50 (on Acetylcholinesterase; in assay [1]; on Histamine H3 receptor; in assay [2]; in assay [3]; on Prothrombin) was greater than 30 µM throughout. Further, the AC50 in assay [4] is greater than 30 µM; in assay [5], greater than 30 µM; at Thromboxane A2 receptor [6], greater than 10 µM; in [7] it was greater than 30 µM; in assay [8], greater than 30 µM; at Thromboxane A2 receptor [9] it was greater than 30 µM. The same molecule showed an AC50 in [10] greater than 30 µM.

Consider `CCC[C@H](N[C@@H](C)C(=O)N1[C@H](C(=O)O)C[C@@H]2CCCC[C@@H]21)C(=O)OCC` [PERINDOPRIL], for which the AC50 (on Acetylcholinesterase; in assay [1]; at Histamine H3 receptor; in assay [2]; in [3]; at Prothrombin) was greater than 30 µM in each case. Moreover, the half-maximal activity concentration (AC50) (in [4]; in [5]; on Thromboxane A2 receptor [6]; in [7]; in assay [8]; at Thromboxane A2 receptor [9]) was greater than 30 µM throughout. This molecule had an AC50 in assay [10] greater than 30 µM.

For `COc1cc(C)c2c(Oc3cccc(C(F)(F)F)c3)c(OC)cc(NC(C)CCCN)c2n1` (stereo not drawn) [TAFENOQUINE], the AC50 (at Acetylcholinesterase; in [1]; at Histamine H3 receptor; in assay [2]; in [3]; at Prothrombin) was greater than 30 µM throughout. Besides, the half-maximal activity concentration (AC50) in [4] was greater than 30 µM; in [5], 11.3 µM; on Thromboxane A2 receptor [6] it was greater than 3 µM; in assay [7] it was 5.98 µM; in assay [8], greater than 30 µM; on Thromboxane A2 receptor [9] it was greater than 3 µM. Also, the half-maximal activity concentration (AC50) in assay [10] is greater than 30 µM.
